This is an account of results in ChEMBL document CHEMBL1138723, “Design of bivalent ligands using hydrogen bond linkers: synthesis and evaluation of inhibitors for human beta-tryptase” (Bioorg Med Chem Lett, 2004).

By IC50 is commonly meant the midpoint of a concentration-inhibition curve. By Ki is commonly meant a dissociation constant, usually derived from enzyme kinetics or from competition with a known ligand. A high value points to weaker binding.

For one assay, the target named is Cytochrome P450 2C9 (Homo sapiens, UniProt P11712). Briefly: Inhibitory activity against cytochrome P450 determined using human liver microsome upon 15 min incubation with probes substrates Tolbutamide (2C9). It is filed as ADME, microsomes.
The target in a further assay is Tryptase beta-1 (Homo sapiens, UniProt Q15661). Briefly: Inhibitory activity against human mast cell tryptase beta.
Assay [1] addresses Voltage-gated inwardly rectifying potassium channel KCNH2 (Homo sapiens, UniProt Q12809). Description: Inhibitory activity against human Potassium channel HERG.
The next assay addresses Cytochrome P450 2C19 (Homo sapiens, UniProt P33261). Briefly: Inhibitory activity against cytochrome P450 determined using human liver microsome upon 15 min incubation with probes substrates s-mephenytoin (2C19). It is filed as ADME, microsomes. In general terms: Liver microsomes are a subcellular fraction often used to study metabolism.

Sequence of Tryptase beta-1 (Q15661 whole entry): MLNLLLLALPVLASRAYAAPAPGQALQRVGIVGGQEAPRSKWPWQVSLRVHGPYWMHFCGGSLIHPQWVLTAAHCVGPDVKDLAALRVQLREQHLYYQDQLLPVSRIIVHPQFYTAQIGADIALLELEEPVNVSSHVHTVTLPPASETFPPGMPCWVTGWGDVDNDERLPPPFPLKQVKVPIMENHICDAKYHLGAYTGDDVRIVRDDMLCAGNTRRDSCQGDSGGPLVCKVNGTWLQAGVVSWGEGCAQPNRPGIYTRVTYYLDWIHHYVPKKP
Sequence of Cytochrome P450 2C19 (P33261 whole entry): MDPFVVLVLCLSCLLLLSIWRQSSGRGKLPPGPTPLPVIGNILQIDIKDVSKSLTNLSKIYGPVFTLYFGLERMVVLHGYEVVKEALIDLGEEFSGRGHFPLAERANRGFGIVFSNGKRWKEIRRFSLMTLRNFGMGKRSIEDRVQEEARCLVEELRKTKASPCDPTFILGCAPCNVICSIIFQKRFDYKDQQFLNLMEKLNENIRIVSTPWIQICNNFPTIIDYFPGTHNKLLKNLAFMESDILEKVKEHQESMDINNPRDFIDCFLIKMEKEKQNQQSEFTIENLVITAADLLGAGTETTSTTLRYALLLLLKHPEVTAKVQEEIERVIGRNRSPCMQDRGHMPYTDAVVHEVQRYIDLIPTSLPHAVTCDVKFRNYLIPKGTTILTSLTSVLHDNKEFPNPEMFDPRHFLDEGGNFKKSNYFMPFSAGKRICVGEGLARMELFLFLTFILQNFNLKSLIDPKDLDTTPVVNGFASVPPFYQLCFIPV
Sequence of Voltage-gated inwardly rectifying potassium channel KCNH2 (Q12809 whole entry): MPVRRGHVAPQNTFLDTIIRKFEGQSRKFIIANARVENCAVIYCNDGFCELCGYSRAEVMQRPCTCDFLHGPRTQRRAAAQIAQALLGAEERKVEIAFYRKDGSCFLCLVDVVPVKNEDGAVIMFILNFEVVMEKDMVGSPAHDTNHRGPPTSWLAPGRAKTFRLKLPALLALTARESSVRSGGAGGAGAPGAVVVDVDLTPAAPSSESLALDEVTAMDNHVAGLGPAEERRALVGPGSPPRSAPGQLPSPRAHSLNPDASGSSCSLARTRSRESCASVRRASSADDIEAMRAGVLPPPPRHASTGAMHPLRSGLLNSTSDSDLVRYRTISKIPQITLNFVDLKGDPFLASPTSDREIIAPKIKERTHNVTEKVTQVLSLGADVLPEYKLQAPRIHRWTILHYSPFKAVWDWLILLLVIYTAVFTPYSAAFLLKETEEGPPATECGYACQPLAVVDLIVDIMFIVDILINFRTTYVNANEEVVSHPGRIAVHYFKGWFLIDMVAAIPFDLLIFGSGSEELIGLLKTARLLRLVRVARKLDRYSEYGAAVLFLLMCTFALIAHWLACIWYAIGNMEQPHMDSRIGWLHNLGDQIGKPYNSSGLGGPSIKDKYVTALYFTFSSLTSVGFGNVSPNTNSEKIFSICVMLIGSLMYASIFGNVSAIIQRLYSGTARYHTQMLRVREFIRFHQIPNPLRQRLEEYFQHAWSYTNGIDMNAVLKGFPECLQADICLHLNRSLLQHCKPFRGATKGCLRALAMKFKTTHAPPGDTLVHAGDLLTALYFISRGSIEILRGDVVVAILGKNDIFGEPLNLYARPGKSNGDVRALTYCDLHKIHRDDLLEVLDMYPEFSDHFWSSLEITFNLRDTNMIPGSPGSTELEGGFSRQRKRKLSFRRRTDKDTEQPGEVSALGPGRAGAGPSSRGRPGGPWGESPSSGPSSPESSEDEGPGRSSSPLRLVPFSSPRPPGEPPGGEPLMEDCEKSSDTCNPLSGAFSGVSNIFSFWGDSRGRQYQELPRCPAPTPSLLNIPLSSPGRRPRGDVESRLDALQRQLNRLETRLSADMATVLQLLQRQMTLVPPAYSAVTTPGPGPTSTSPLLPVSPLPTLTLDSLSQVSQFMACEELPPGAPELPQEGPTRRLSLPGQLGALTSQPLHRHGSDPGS
Sequence of Cytochrome P450 2C9 (P11712 whole entry): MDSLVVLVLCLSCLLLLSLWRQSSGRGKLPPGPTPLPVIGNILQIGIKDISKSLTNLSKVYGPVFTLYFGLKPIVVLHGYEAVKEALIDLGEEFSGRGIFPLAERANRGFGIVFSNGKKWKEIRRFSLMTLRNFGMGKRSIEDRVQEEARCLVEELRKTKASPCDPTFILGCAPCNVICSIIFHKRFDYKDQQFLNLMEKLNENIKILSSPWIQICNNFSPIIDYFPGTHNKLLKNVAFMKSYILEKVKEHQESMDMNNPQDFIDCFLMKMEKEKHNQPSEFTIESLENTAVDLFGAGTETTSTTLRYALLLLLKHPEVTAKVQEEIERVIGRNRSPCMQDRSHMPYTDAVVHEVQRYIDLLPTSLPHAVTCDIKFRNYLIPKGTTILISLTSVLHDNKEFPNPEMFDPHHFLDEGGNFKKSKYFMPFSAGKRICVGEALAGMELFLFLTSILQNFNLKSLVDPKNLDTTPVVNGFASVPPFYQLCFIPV

As to `NCc1ccc(F)c(C2CCN(C(=O)c3cccc(-c4nc(-c5cccs5)no4)c3)CC2)c1`, the IC50 against Cytochrome P450 2C9 was found to be 480 nM; in assay [1] it was 800 nM; against Cytochrome P450 2C19 it was 2190 nM. The compound further returned a Ki at Tryptase beta-1 of 4.3 nM.

As for `CCOC(=O)c1cc(C(=O)N2CCC(c3cc(CN)ccc3F)CC2)cc(-c2nc(-c3cccs3)no2)c1`, the affinity on Tryptase beta-1, expressed as Ki, was 59 nM.

As for `NCc1ccc(F)c(C2CCN(C(=O)c3cc(C(N)=O)cc(-c4nc(-c5cccs5)no4)c3)CC2)c1`, the affinity on Tryptase beta-1, expressed as Ki, was 1.3 nM.

Turning to `NCc1cccc(C2CCN(C(=O)c3cc(C(N)=O)cc(-c4nc(-c5cccs5)no4)c3)CC2)c1`, the affinity at Tryptase beta-1 corresponds to a Ki of 1.5 nM.

As to `NCc1ccc(F)c(C2CCN(C(=O)c3cc(C(=O)O)cc(-c4nc(-c5cccs5)no4)c3)CC2)c1`, the figures for the IC50 (on Cytochrome P450 2C9; in assay [1]; at Cytochrome P450 2C19) were greater than 50000 nM, 76800 nM and greater than 50000 nM, respectively. This compound yielded a Ki on Tryptase beta-1 of 88 nM.
